This note sets out measurements from PubChem BioAssay (NCI).

Each structure is given as a SMILES string. Several values for one entry are separate records, joined by “and”; a condition that tells them apart may be missing. Equal values may be shown once.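 Growth conditions: 96-well plates. Treatment: test compound, 48 hours, 5 concentrations. Analysis: linear interpolation between bracketing concentrations; unreached endpoints set to highest concentration. GI50: concentration for 50% inhibition of growth. The concentration for full growth arrest is given as TGI.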 Some results are limits rather than exact numbers.

Among the test systems are IGROV1 ovarian; MDA-MB-435; HL-60(TB) leukemia; HCT-116 colon; NCI-H226 lung; MDA-N; OVCAR-3 ovarian; A498 renal; SNB-19 CNS; SW-620 colon.
What all share (experiment): NCI anticancer screen, dose series, 48 h

Turning to `O=C(/C=C/c1ccc([N+](=O)[O-])cc1)N1CCN(CCOC(c2ccc(F)cc2)c2ccc(F)cc2)CC1`, the TGI in the assay on IGROV1 ovarian, in the assay with MDA-MB-435, in the assay on HL-60(TB) leukemia, in the assay with HCT-116 colon, in the assay on NCI-H226 lung and in the assay with MDA-N was more than 100 µM throughout. Moreover, the TGI in the assay on OVCAR-3 ovarian, with A498 renal, in the assay on SNB-19 CNS and in the assay with SW-620 colon was more than 100 µM throughout.

For the molecule `O=C1Nc2cccc(Cl)c2/C1=C\c1cccnc1`, the TGI in the assay with MDA-MB-435 is 19.8 µM; in the assay on HL-60(TB) leukemia, more than 100 µM; in the assay on HCT-116 colon, 11.3 µM; in the assay with OVCAR-3 ovarian it was 21.2 µM; in the assay on A498 renal, 37.1 µM; in the assay on SNB-19 CNS, 16.3 µM. In the assay with SW-620 colon, this molecule showed a TGI of 37.7 µM.

Turning to `Cc1csc2nc(-c3cccc([N+](=O)[O-])c3)c(/C=N/N=C(N)N)n12`, the TGI came to 3.19 µM in the assay on IGROV1 ovarian; 3.03 µM in the assay with MDA-MB-435; 2.26 µM in the assay on HL-60(TB) leukemia; 3.3 µM with HCT-116 colon; 3.04 µM in the assay with MDA-N; 4.24 µM in the assay on OVCAR-3 ovarian. Also, the TGI with A498 renal turned out to be 2.92 µM; with SW-620 colon, 2.98 µM.

As for `COC(=O)c1c(O)ccc2c1c1c(n2CCc2ccc(OC)c(OC)c2)C(=O)c2ccccc2C1=O`, the TGI is 29.9 µM with IGROV1 ovarian; 29.2 µM in the assay with MDA-MB-435; 59 µM with HL-60(TB) leukemia; 26.7 µM in the assay on HCT-116 colon; 50.3 µM in the assay with NCI-H226 lung; 25.5 µM in the assay with MDA-N. Further, the TGI in the assay on OVCAR-3 ovarian is 40.6 µM; with A498 renal it was 32.9 µM; with SNB-19 CNS it was more than 100 µM.

Regarding `Brc1ccc(-c2[nH]c3ccccc3c2/C=N\Nc2ccc(-c3nc4ccccc4[nH]3)cc2)cc1`, the TGI was more than 88.3 µM in the assay with IGROV1 ovarian; more than 100 µM in the assay on HL-60(TB) leukemia; less than 0.01 µM with MDA-N; more than 100 µM in the assay with OVCAR-3 ovarian; more than 100 µM in the assay on SNB-19 CNS; more than 49.5 µM in the assay with SW-620 colon.

In the case of `O=C1OC(c2ccc(O)cc2)(c2ccc(O)cc2)c2ccc(Cl)c3cccc1c23` (tested in a mixture with another compound), the TGI in the assay on IGROV1 ovarian is 33.2 µM; in the assay with MDA-MB-435, 18.9 µM; in the assay with HCT-116 colon, 18.9 µM; in the assay on NCI-H226 lung, 34 µM; in the assay on MDA-N, 25.7 µM; in the assay on OVCAR-3 ovarian it was more than 75 µM. For the same molecule, the results for the TGI in the assay with A498 renal, in the assay on SNB-19 CNS and with SW-620 colon were more than 75 µM, more than 75 µM and 33.4 µM, respectively.

As for `Cc1ncc(C(=O)Nc2ccc(CN3CCN(C)CC3)c(C(F)(F)F)c2)cc1C#Cc1cnc(N)c2ccc(C#N)cc12`, the TGI with IGROV1 ovarian is 0.23 µM; in the assay on HL-60(TB) leukemia, more than 100 µM; with NCI-H226 lung, 0.593 µM; in the assay on OVCAR-3 ovarian, 8.09 µM. Moreover, the GI50 was 0.4 µM in the assay with HL-60(TB) leukemia, 0.0345 µM in the assay on NCI-H226 lung and 0.0949 µM in the assay on OVCAR-3 ovarian.

On to `COc1cc(/C=N/NC(=O)c2c(Cl)c(Cl)c(Cl)c(Cl)c2-c2nc3ccc(C(=O)c4ccccc4)cc3[nH]2)ccc1O`, for which the TGI in the assay on IGROV1 ovarian is more than 100 µM; with MDA-MB-435 it was more than 100 µM; in the assay with HL-60(TB) leukemia, 61.1 µM; in the assay on HCT-116 colon, more than 100 µM; in the assay on NCI-H226 lung, more than 100 µM; with MDA-N, 52 µM. For the same molecule, the TGI in the assay on OVCAR-3 ovarian, in the assay on SNB-19 CNS and in the assay with SW-620 colon was more than 100 µM each time.

On to `O=C(O)c1cc2ccccc2c(N=Nc2ccc(S(=O)(=O)Nc3ccccn3)cc2)c1O`, for which the TGI in the assay with IGROV1 ovarian, in the assay on MDA-MB-435, with HL-60(TB) leukemia, in the assay with HCT-116 colon, in the assay on NCI-H226 lung and with MDA-N was more than 100 µM each time. For the same molecule, the TGI with OVCAR-3 ovarian, with SNB-19 CNS and with SW-620 colon was more than 100 µM throughout.

Turning to `O=S(=O)(c1ccccc1)C1CC(c2nc3ccccc3[nH]2)=NO1` (stereo not drawn), the TGI in the assay on IGROV1 ovarian, with MDA-MB-435, with HCT-116 colon, in the assay with NCI-H226 lung, with MDA-N and in the assay with OVCAR-3 ovarian was more than 100 µM each time. The TGI in the assay on A498 renal, in the assay on SNB-19 CNS and in the assay with SW-620 colon was more than 100 µM each time.

Regarding `CCCCCCCCCCCCc1ccc(S(=O)(=O)O)cc1.[Cu+2]`, the TGI with IGROV1 ovarian, with MDA-MB-435, in the assay with HL-60(TB) leukemia, in the assay with HCT-116 colon, in the assay with MDA-N and with OVCAR-3 ovarian was more than 100 µM in each case. The TGI in the assay on A498 renal, with SNB-19 CNS and in the assay with SW-620 colon was more than 100 µM throughout.

`CC[C@@]1(O)CC(OC2CC(N3CCOCC3)C(O)C(C)O2)c2c(O)c3c(c(O)c2[C@H]1O)C(=O)c1cccc(O)c1C3=O` (stereo partly drawn): the GI50 was 0.235 µM in the assay on IGROV1 ovarian; 0.000481 µM and < 0.0113 µM with HL-60(TB) leukemia; 0.0149 µM in the assay on HCT-116 colon; 0.0184 µM in the assay on NCI-H226 lung; 0.176 µM in the assay with OVCAR-3 ovarian; 0.07 µM with A498 renal. Also, the figures for the GI50 with SNB-19 CNS and with SW-620 colon were 0.0292 µM and 0.121 µM, respectively. The TGI is 2.9 µM and 5.99 µM in the assay with IGROV1 ovarian; 1.14 µM in the assay on MDA-MB-435; 0.431 µM and 0.36 µM with HL-60(TB) leukemia; 4.27 µM and 3.5 µM in the assay with HCT-116 colon; 0.597 µM and 0.102 µM in the assay on NCI-H226 lung; 1.04 µM in the assay on MDA-N. Moreover, the TGI in the assay on OVCAR-3 ovarian was 2.73 µM and 1.63 µM; with A498 renal it was 0.634 µM and 0.229 µM; in the assay with SNB-19 CNS, 3.92 µM and 4.16 µM; in the assay with SW-620 colon, 5.93 µM and 9.38 µM.

With `N#CC1(CCCI)CCCC1`, the TGI in the assay on IGROV1 ovarian was more than 100 µM; in the assay with HL-60(TB) leukemia, 58.9 µM; in the assay on HCT-116 colon, more than 100 µM; in the assay with OVCAR-3 ovarian, 31.1 µM; in the assay on A498 renal, more than 100 µM; in the assay on SNB-19 CNS, 31.6 µM. In the assay on SW-620 colon, this molecule displayed a TGI of more than 100 µM.

As for `C[C@]12CC[C@H]3[C@@H](CC=C4C[C@@H](O)CC[C@@]43C)[C@@H]1C/C(=C\c1ccncc1)[C@@H]2O`, the TGI with IGROV1 ovarian amounted to 73.5 µM; in the assay with MDA-MB-435, 47.9 µM; in the assay on HL-60(TB) leukemia it was 31 µM; with HCT-116 colon, 51.4 µM; in the assay with NCI-H226 lung it was 57.2 µM; in the assay with MDA-N, 54.4 µM. The TGI was more than 100 µM in the assay on OVCAR-3 ovarian, 28.3 µM in the assay on A498 renal, 62.1 µM with SNB-19 CNS and more than 100 µM with SW-620 colon.

For the molecule `CC(=O)OC(C(=O)O)C(OC(C)=O)C(OC(C)=O)C(OC(C)=O)C(=O)O` (stereo not drawn), the TGI in the assay with IGROV1 ovarian, with MDA-MB-435, in the assay with HL-60(TB) leukemia, with HCT-116 colon, in the assay on NCI-H226 lung and in the assay on MDA-N was more than 100 µM throughout. For the same molecule, the TGI in the assay with OVCAR-3 ovarian, in the assay on A498 renal, in the assay with SNB-19 CNS and in the assay on SW-620 colon was more than 100 µM in each case.

Consider `N#Cc1c(-c2ccc([N+](=O)[O-])cc2)c2c([nH]c1=O)-c1ccccc1CCC2`, for which the TGI in the assay on IGROV1 ovarian is more than 100 µM; in the assay on MDA-MB-435, more than 100 µM; in the assay with HL-60(TB) leukemia it was more than 100 µM; with HCT-116 colon it was more than 100 µM; in the assay with NCI-H226 lung, 96.2 µM; with MDA-N, more than 100 µM. In addition, the TGI in the assay on OVCAR-3 ovarian, in the assay with A498 renal, in the assay on SNB-19 CNS and in the assay on SW-620 colon was more than 100 µM throughout.

Take `NC1CCN(c2nc3ccccc3c3c2CCCC3)CC1`: the TGI with IGROV1 ovarian was determined as 19.5 µM; in the assay on MDA-MB-435, 7.61 µM; in the assay on HL-60(TB) leukemia, 8.84 µM; with HCT-116 colon it was 14.4 µM; with NCI-H226 lung it was 24.3 µM; with MDA-N, 9.6 µM. Besides, the TGI is 28.1 µM in the assay on OVCAR-3 ovarian, 22.7 µM in the assay on A498 renal, 22.7 µM in the assay with SNB-19 CNS and 12.7 µM with SW-620 colon.

Take `Cc1c(-c2ccccc2)c(C#N)c2nnn(-c3ccc(Cl)cc3)c(=O)n12`: the TGI in the assay with IGROV1 ovarian, in the assay with MDA-MB-435, in the assay with HL-60(TB) leukemia, with HCT-116 colon, with NCI-H226 lung and in the assay on MDA-N was more than 100 µM in each case. The TGI in the assay on OVCAR-3 ovarian was 52.2 µM; in the assay on A498 renal, more than 100 µM; in the assay on SNB-19 CNS, more than 100 µM; with SW-620 colon it was more than 100 µM.

In the case of `CC(C)CNC1=NCC(C)S1` (stereo not drawn), the TGI in the assay with IGROV1 ovarian, in the assay on MDA-MB-435, in the assay on HL-60(TB) leukemia, in the assay with HCT-116 colon, with NCI-H226 lung and with MDA-N was more than 100 µM in each case. Also, the TGI with OVCAR-3 ovarian, in the assay with A498 renal, in the assay with SNB-19 CNS and in the assay on SW-620 colon was more than 100 µM in each case.

With `CC(C)CCN(CCC(C)C)CC(=O)Nc1ccc(S(=O)(=O)c2ccc(NC(=O)CN(CCC(C)C)CCC(C)C)cc2)cc1`, the GI50 is 1.64 µM in the assay on IGROV1 ovarian; 2.15 µM in the assay on MDA-MB-435; 2.22 µM in the assay on HL-60(TB) leukemia; 2.91 µM in the assay on NCI-H226 lung; 1.41 µM in the assay with OVCAR-3 ovarian; 16.5 µM with A498 renal. For the same molecule, the GI50 in the assay with SNB-19 CNS was 2.19 µM; with SW-620 colon, 1.55 µM. Further, the TGI in the assay with IGROV1 ovarian amounted to 4.5 µM; in the assay with MDA-MB-435 it was 6.07 µM; with HL-60(TB) leukemia it was 5.79 µM; with NCI-H226 lung, 11.5 µM; in the assay with OVCAR-3 ovarian it was 3.03 µM; with A498 renal, 38.8 µM. For the same molecule, the TGI with SNB-19 CNS amounted to 10.3 µM; with SW-620 colon, 3.74 µM.

Turning to `C=C(CN(C)C)C(=O)c1ccccc1OC`, the TGI was 58.1 µM in the assay with IGROV1 ovarian; 34.2 µM in the assay on MDA-MB-435; more than 35.8 µM in the assay with HL-60(TB) leukemia; 30.9 µM in the assay with HCT-116 colon; 62.7 µM in the assay on NCI-H226 lung; 34 µM in the assay on MDA-N. In addition, the TGI is 32.9 µM with OVCAR-3 ovarian, 64 µM in the assay on A498 renal, more than 87.6 µM in the assay with SNB-19 CNS and 19.6 µM in the assay on SW-620 colon.
